The results in this text go back to patent US20090062899A1, “COMPOSITE STENT WITH POLYMERIC COVERING AND BIOACTIVE COATING” (NFOCUS NEUROMEDICAL, INC., priority 2001, published 2009).

This assay concerns endothelial cells. Kind of assay: cell growth on surfaces carrying the bioactive (P15) coating. It counts as cell-based. To be noted: polymer sleeve covered with the peptide. The text has this:
Chemical/biological testing such as MA (amino acid analysis), in vitro cell cultures followed by SEM (scanning electron microscopy), and in vivo testing can be used for evaluating the coatings of the present invention.

As to “H-Gly-Thr-Pro-Gly-Pro-Gln-Gly-Ile-Ala-Gly-Gln-Arg-Gly-Val-Val-OH (H-GTPGPQGIAGQRGVV-OH; also: covalently bound coating on PTFE) [P15]”, the endothelial cell growth entry was “stimulated”.
